# From ChEMBL document CHEMBL5500364, “Design, synthesis, and biological evaluation of some 2-(3-oxo-5,6-diphenyl-1,2,4-triazin-2(3H)-yl)-N-phenylacetamide hybrids as MTDLs for Alzheimer's disease therapy” (Eur J Med Chem, 2024)
# Activity calls are given as the source filed them. The rule behind the calls is not given here.
# Columns and labels:
# [1] = Acute toxicity in Wistar rat assessed as toxicity signs at 500 to 1000 mg/kg, po administered for 14 days; assay type: organism-based; details: in vivo, 336 h, dose 500-1000 mg/kg, time 14 day
# Rattus norvegicus [2] = test: Reversal of amyloid beta (1 to 42 residues) induced cognitive impairment in Wistar rat assessed as reduction in escape latency time at 10 mg/kg, po pretreated with amyloid beta for 7 days followed by compound administration for 9 days and measured after 1 days by Morris water maze test; assay type: functional, organism-based; details: time 10.0 day
# Rattus norvegicus [3] = test: Reversal of amyloid beta (1 to 42 residues) induced cognitive impairment in Wistar rat assessed as decrease in Tau protein level at 10 mg/kg, po pretreated with amyloid beta for 7 days followed by compound administration for 9 days and measured after 5 days by Western blot analysis; assay type: functional, organism-based; details: time 14.0 day
# [4] = Toxicity in wildtype Oregon R-positive Drosophila assessed as eclosion at 50 uM pretreated for 5 days and measured for 15 days relative to control; details: 480 h, time 20 day
# Drosophila = test: Neuroprotective activity in ey-GAL4>UAS-amyloid beta (1 to 42) induced cellular toxicity in Oregon R-positive Drosophila model assessed as rescue in eye phenotype at 20 uM by Stereo zoom microscopic imaging analysis relative to control; assay type: functional
structure (smiles),measurement,setting,value
COc1cc(NC(=O)Cn2nc(-c3ccccc3)c(-c3ccccc3)nc2=O)cc(OC)c1,Activity,[1],Non-Toxic
same,Activity,Rattus norvegicus [2],inactive
same,Activity,Rattus norvegicus [3],Active
same,Activity,[4],25%
same,Activity,Drosophila,57%
